Data as given in patent EP4631503A1, “AVL-292 OR MK-5108 FOR USE IN THE TREATMENT OF PDAC” (priority 2024, dated 2025).
Read-outs that look alike come from different tables or passages of the source.

Assays:
[1] = MTT cell viability assay; format: cell-based; details: Homo sapiens, PANC-1, 48 h, Pane1 cells, two days
Experimental: Pane1 and HPAF II cells were cultured with DMEM (D0822, Sigma-Aldrich) supplemented with 10% fetal bovine serum (FBS, F7524, Sigma-Aldrich), 1% P/S (P4333, Sigma-Aldrich). For siRNA treatment, 200,000 cells for a 6well plate and 20,000 cells per well for a 96well plate were seeded. siRNAs were purchased in Origene, CDCA5 (SR314367, Origene), KIF18A (SR313129, Origene), KIF23 (SR306300, Origene), TPX2 (SR307905, Origene), and cells were transfected by Lipofectamine® RNAiMAX (13778-075, Invitrogen) for two days. Small molecules which repositioned were purchased by AVL-292 (HY-18012, MCE), BCI-50 (HY-17553, MCE), MK-5108 (HY-13252, MCE), AZD1208 (HY-15604, MCE), SKA-31 (HY111655, MCE), Y-26763 (HY-101069, MCE), Estropipate (HY-B1361, MCE), Tiquizium (sc-474386, Santa Cruz), Acyclovir (HY-17422, MCE), and Cyproterone acetate (HY-13604, MCE) and dissolved into DMSO. Drugs were treated to cells for two days at 10µM. Cell viability was measured by MTT assay (M6494, ThermoFisher) by following the manufacturer's instructions. O.D values were detected with a microplate reader (Hidex Sense Beta Plus).

[2] = system: HPAF II; assay: MTT cell viability assay; format: cell-based; details: Homo sapiens, 48 h
Experimental: Pane1 and HPAF II cells were cultured with DMEM (D0822, Sigma-Aldrich) supplemented with 10% fetal bovine serum (FBS, F7524, Sigma-Aldrich), 1% P/S (P4333, Sigma-Aldrich). […] Drugs were treated to cells for two days at 10µM. Cell viability was measured by MTT assay (M6494, ThermoFisher) by following the manufacturer's instructions. O.D values were detected with a microplate reader (Hidex Sense Beta Plus).

[3] = Western blot, apoptotic marker; format: cell-based; details: apoptotic gene
Experimental: (§1) Pane1 and HPAF II cells were seeded into a 6-well plate at 200,000 cells per well concentration. After siRNA transfection and drug treatment, whole cell lysate was prepared with CelLytic M (C2978, Sigma-Aldrich) buffer and samples were prepared with 2x Laemmli Sample Buffer (1610737, Biorad) at 20µg protein lysate. SDS PAGE was performed Mini-PROTEAN® TGX™ Precast Gels (Bio-Rad) and transferred using Trans-Blot® Turbo™ Transfer System (Bio-Rad). CDCA5 (ab192237, abcam), KIF18A (ab72417, abcam), KIF23 (HPA068831, Sigma Aldrich), TPX2 (ab252944, abeam), Aurora A (ab108353, abeam), Aurora B (ab287960, abcam), PARP (9542S, Cell signaling), […] (ab2324, abcam), β-actin (ab8227, abeam), GAPDH (ab8245, abeam), and α-tubulin (ab7291, abcam) were blotted as a primary antibody for overnight. Secondary antibodies, Goat Anti-Rabbit HRP (ab205718) and goat anti-mouse IgG-HRP (sc2005, Santa Cruz Biotechnology, Inc.) were blotted for one hour. The protein band was detected with ImageQuantTMLAS 500 (29-0050-63, GE).

[4] = system: cleaved PRAP; assay: Western blot, apoptotic marker; format: cell-based; details: apoptotic gene
Experimental: as §1

[5] = system: KIF18A; assay: Western blot, protein expression level; format: cell-based; details: Pane1 cells, 10 µM, in words
Experimental: as §1

[6] = system: AURKA; assay: Western blot, protein expression level; format: cell-based; details: cells, 10 µM, in words
Experimental: as §1

[7] = system: AURKB; assay: Western blot, protein expression level; format: cell-based; details: cells, 10 µM, in words
Experimental: as §1

[8] = system: CDCA5; assay: Western blot, protein expression level; format: cell-based; details: cells, 10 µM, in words
Experimental: as §1

[9] = system: TPX2; assay: Western blot, protein expression level; format: cell-based; details: cells, 10 µM, in words
Experimental: as §1

[10] = system: KIF23; assay: Western blot, protein expression level; format: cell-based; details: cells, 10 µM, in words
Experimental: as §1

[11] = taken orally, phase I trial; cited from earlier work
[12] = system: PDAC; details: phase II clinical trials; cited from earlier work

Row | SMILES | viability at 10 µM [1] | viability at 10 µM ([2]; HPAF-II) | protein expression level of Cas9 [3] | protein expression level of cleaved PRAP [4] | KIF18A expression change [5] | AURKA expression change [6] | AURKB expression change [7] | CDCA5 expression change [8] | TPX2 expression change [9] | KIF23 expression change [10] | tolerability in patients [11] | viability at 10 µM ([2]; HPAF II cells, 10µM, two days, read-out: viability) | extended survival, average [12]
1 | C=CC(=O)Nc1cccc(Nc2nc(Nc3ccc(OCCOC)cc3)ncc2F)c1 [AVL-292] | 60.7% | 71.6% | increased | increased |  |  |  |  |  |  |  |  | 
2 | O=C(O)[C@]1(Cc2cccc(Nc3nccs3)n2)CC[C@@H](Oc2cccc(Cl)c2F)CC1 [MK-5108] | 45.8% |  | increased | increased | over-expressed | over-expressed | no obvious effect | over-expressed | over-expressed | over-expressed | well tolerated | 69.5% | 
3 | CN(C)C(=N)N=C(N)N [Metformin] |  |  |  |  |  |  |  |  |  |  |  |  | 0.8 months
